Experimental data from ChEMBL document CHEMBL4251732, “Discovery of Novel Indoleamine 2,3-Dioxygenase 1 (IDO1) and Histone Deacetylase (HDAC) Dual Inhibitors” (ACS Med Chem Lett, 2018).
Calls of active or inactive are those of the source. No cut-off for these calls is given here.

Legend:
Histone deacetylase 1 = Histone deacetylase 1 (Homo sapiens, UniProt Q13547); assay: Inhibition of recombinant human full length HDAC1 using fluorogenic substrate 3 after 30 mins by fluorescence assay
[1] = biological target: T1, Indoleamine 2,3-dioxygenase 1 (Homo sapiens, UniProt P14902); assay: Inhibition of recombinant human GST-tagged IDO1 (1 to 404 residues) using D-Tryptophan as substrate
[2] = tested on: Lewis lung carcinoma cell line; assay: Antiproliferative activity against mouse LLC cells after 48 hrs by CCK-8 assay; assay type: functional, cell-based
CT26 = assay: Antiproliferative activity against mouse CT26 cells after 48 hrs by CCK-8 assay; assay type: functional, cell-based; details: CT26, 48 h
A549 = assay: Antiproliferative activity against human A549 cells after 48 hrs by CCK-8 assay; assay type: functional, cell-based; details: A549, 48 h
HCT-116 [3] = assay: Antiproliferative activity against human HCT116 cells after 48 hrs by CCK-8 assay; assay type: functional, cell-based; details: HCT-116, 48 h
HT-29 = assay: Antiproliferative activity against human HT-29 cells after 48 hrs by CCK-8 assay; assay type: functional, cell-based; details: HT-29, 48 h
HCT-116 [4] = assay: Induction of apoptosis in human HCT116 cells after 48 hrs by Annexin V-FITC/propidium iodide staining based flow cytometry; assay type: functional, cell-based
HCT-116 [5] = assay: Induction of apoptosis in human HCT116 cells at 5 uM after 48 hrs by Annexin V-FITC/propidium iodide staining based flow cytometry relative to control; assay type: functional
HCT-116 [6] = assay: Induction of apoptosis in human HCT116 cells at 10 uM after 48 hrs by Annexin V-FITC/propidium iodide staining based flow cytometry relative to control; assay type: functional
HCT-116 [7] = assay: Induction of apoptosis in human HCT116 cells at 20 uM after 48 hrs by Annexin V-FITC/propidium iodide staining based flow cytometry relative to control; assay type: functional
HCT-116 [8] = assay: Cell cycle arrest in human HCT116 cells assessed as accumulation at G2/M phase up to 48 hrs by propidium iodide staining based flow cytometry (reference value: 27.2%); assay type: functional
HCT-116 [9] = assay: Cell cycle arrest in human HCT116 cells assessed as accumulation at G2/M phase by propidium iodide staining based flow cytometry; assay type: functional; details: TDE = time-dependent effect
[10] = biological target: T1, Indoleamine 2,3-dioxygenase 1; assay: Inhibition of IDO1 in IFN-gamma-stimulated human HeLa cells assessed as decrease in kynurenine levels after 48 hrs; assay type: cell-based
HeLa = assay: Cytotoxicity against human HeLa cells assessed as inhibition of cell growth after 48 hrs by CCK-8 assay; assay type: cell-based
[11] = Ratio of LC50 for human HeLa cells to EC50 for IDO1 in IFN-gamma-stimulated human HeLa cells; assay type: toxicity
Histone deacetylase 2 = Histone deacetylase 2 (Homo sapiens, UniProt Q92769); assay: Inhibition of HDAC2 (unknown origin) using substrate 3 after 30 mins by fluorescence assay
Histone deacetylase 3 = Histone deacetylase 3 (Homo sapiens, UniProt O15379); assay: Inhibition of HDAC3 (unknown origin) using substrate 3 after 30 mins by fluorescence assay
[12] = biological target: T2, Protein deacetylase HDAC6 (Homo sapiens, UniProt Q9UBN7); assay: Inhibition of HDAC6 (unknown origin) using substrate 3 after 30 mins by fluorescence assay
T2 sequence (Q9UBN7 whole entry): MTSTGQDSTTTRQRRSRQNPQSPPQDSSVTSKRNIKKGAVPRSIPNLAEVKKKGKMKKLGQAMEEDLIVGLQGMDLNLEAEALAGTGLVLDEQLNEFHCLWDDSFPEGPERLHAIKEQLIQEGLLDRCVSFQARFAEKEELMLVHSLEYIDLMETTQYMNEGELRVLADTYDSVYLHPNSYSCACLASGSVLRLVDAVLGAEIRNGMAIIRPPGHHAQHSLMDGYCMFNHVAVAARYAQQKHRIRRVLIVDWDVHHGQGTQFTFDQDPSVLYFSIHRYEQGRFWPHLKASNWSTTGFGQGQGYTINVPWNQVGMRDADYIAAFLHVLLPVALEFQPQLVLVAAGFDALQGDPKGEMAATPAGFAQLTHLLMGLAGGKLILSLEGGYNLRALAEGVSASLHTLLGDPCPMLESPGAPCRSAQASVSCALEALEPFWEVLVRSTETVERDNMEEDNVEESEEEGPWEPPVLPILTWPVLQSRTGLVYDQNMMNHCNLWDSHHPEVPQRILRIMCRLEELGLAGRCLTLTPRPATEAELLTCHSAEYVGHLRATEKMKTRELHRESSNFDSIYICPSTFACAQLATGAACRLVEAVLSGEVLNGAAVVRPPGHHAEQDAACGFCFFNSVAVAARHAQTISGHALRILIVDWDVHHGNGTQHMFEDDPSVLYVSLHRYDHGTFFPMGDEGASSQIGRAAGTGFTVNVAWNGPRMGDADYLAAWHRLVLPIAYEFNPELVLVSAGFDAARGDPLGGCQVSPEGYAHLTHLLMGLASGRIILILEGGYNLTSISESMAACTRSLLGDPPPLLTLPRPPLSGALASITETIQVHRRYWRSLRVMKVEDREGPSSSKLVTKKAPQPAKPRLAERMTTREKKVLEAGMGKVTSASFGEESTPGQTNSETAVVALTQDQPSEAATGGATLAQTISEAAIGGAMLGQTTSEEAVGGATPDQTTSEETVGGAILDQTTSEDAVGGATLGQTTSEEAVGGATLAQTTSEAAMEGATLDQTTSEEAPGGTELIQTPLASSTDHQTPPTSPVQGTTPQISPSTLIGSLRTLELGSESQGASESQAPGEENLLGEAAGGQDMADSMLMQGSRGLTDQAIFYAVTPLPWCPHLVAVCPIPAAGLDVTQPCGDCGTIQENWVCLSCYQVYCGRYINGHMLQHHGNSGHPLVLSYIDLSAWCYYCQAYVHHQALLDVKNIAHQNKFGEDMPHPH

[13] = Half life in mouse liver microsomes at 1 uM by LC-MS/MS analysis; assay type: ADME, microsome
[14] = Apparent clearance in mouse liver microsomes; assay type: ADME, microsome
[15] = Cmax in Sprague-Dawley rat at 100 mg/kg, po administered as single dose via gavage by LC-MS/MS analysis; assay type: ADME, organism-based; parameters: dose 100 mg/kg, route oral; details: in vivo
[16] = Cmax in Sprague-Dawley rat at 2 mg/kg, iv administered as single dose by LC-MS/MS analysis; assay type: ADME, organism-based; parameters: dose 2 mg/kg, route intravenous; details: in vivo
[17] = Tmax in Sprague-Dawley rat at 100 mg/kg, po administered as single dose via gavage by LC-MS/MS analysis; assay type: ADME, organism-based; details: in vivo
[18] = Tmax in Sprague-Dawley rat at 2 mg/kg, iv administered as single dose by LC-MS/MS analysis; assay type: ADME, organism-based; details: in vivo
[19] = Half life in Sprague-Dawley rat at 100 mg/kg, po administered as single dose via gavage by LC-MS/MS analysis; assay type: ADME, organism-based; details: in vivo
[20] = Half life in Sprague-Dawley rat at 2 mg/kg, iv administered as single dose by LC-MS/MS analysis; assay type: ADME, organism-based; details: in vivo
[21] = AUC (0 to infinity) in Sprague-Dawley rat at 100 mg/kg, po administered as single dose via gavage by LC-MS/MS analysis; assay type: ADME, organism-based; parameters: dose 100 mg/kg, time infinity, route oral; details: in vivo
[22] = AUC (0 to infinity) in Sprague-Dawley rat at 2 mg/kg, iv administered as single dose by LC-MS/MS analysis; assay type: ADME, organism-based; parameters: dose 2 mg/kg, time infinity, route intravenous; details: in vivo
[23] = Oral bioavailability in Sprague-Dawley rat at 100 mg/kg administered as single dose via gavage by LC-MS/MS analysis; assay type: ADME, organism-based; details: in vivo
Mus musculus [24] = assay: In vivo inhibition of IDO1 in wild type C57BL/6 mouse assessed as reduction in kynurenine levels in plasma at 100 mg/kg, po administered via gavage after 3 to 8 hrs by LC-MS/MS analysis; assay type: functional, organism-based
[25] = Stability of the compound in PBS buffer after 24 hrs; assay type: physicochemical
[26] = Solubility of the compound in water; assay type: physicochemical
[27] = tested on: Lewis lung carcinoma cell line; assay: Antitumor activity against mouse LLC cells implanted in immunocompetent C57BL/6 mouse assessed as tumor growth inhibition at 100 mg/kg, po bid administered via gavage for 14 consecutive days measured every 4 days relative to control; assay type: functional; details: 96 h, read-out: TGI
Mus musculus [28] = assay: Toxicity in immunocompetent C57BL/6 mouse assessed as body weight loss at 100 mg/kg, po bid administered via gavage for 14 consecutive days measured 3 times per week; assay type: organism-based; details: in vivo
[29] = AUC in immunocompetent C57BL/6 mouse implanted with mouse LLC cells at 100 mg/kg, po bid administered via gavage; assay type: ADME, organism-based; details: in vivo
[30] = Half life in immunocompetent C57BL/6 mouse implanted with mouse LLC cells at 100 mg/kg, po bid administered via gavage; assay type: ADME, organism-based; details: in vivo

T1 sequence (P14902 whole entry, the tested form may be a part): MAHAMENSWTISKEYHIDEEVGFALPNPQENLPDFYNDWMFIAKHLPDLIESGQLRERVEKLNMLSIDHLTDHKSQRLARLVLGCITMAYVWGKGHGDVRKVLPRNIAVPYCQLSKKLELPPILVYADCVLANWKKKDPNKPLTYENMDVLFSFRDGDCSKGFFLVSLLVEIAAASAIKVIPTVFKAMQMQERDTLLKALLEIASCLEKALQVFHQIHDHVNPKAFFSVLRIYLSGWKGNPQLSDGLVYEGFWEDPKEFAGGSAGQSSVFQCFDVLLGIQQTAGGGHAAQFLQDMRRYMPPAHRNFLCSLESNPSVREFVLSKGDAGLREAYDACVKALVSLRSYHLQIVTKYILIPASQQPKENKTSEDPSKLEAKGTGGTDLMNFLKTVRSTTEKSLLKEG
Histone deacetylase 1, sequence (Q13547 whole entry, the tested form may be a part): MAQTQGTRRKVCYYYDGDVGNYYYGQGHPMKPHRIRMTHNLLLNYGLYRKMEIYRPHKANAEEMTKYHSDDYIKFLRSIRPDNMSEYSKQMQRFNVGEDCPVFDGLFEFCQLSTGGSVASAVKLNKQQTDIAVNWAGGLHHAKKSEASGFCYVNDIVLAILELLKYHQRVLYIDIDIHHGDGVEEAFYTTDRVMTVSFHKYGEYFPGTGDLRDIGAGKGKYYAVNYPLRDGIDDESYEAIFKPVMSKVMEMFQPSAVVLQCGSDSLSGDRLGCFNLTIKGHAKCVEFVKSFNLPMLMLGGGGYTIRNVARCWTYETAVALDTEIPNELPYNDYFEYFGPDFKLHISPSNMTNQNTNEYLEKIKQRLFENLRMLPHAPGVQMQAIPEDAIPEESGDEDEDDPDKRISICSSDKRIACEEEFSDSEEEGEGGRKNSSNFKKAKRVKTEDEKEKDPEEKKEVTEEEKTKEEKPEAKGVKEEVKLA
Histone deacetylase 3, sequence (O15379 whole entry): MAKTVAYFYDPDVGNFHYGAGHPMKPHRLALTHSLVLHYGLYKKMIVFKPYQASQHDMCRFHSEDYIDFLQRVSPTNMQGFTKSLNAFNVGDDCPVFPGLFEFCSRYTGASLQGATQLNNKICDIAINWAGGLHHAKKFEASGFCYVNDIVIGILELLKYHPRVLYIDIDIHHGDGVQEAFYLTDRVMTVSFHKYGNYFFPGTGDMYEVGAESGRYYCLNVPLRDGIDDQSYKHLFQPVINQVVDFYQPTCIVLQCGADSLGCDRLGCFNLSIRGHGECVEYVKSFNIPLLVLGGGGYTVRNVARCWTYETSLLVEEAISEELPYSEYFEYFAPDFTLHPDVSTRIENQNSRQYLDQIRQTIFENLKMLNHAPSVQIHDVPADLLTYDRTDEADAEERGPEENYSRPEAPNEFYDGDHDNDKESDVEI
Histone deacetylase 2, sequence (Q92769 whole entry): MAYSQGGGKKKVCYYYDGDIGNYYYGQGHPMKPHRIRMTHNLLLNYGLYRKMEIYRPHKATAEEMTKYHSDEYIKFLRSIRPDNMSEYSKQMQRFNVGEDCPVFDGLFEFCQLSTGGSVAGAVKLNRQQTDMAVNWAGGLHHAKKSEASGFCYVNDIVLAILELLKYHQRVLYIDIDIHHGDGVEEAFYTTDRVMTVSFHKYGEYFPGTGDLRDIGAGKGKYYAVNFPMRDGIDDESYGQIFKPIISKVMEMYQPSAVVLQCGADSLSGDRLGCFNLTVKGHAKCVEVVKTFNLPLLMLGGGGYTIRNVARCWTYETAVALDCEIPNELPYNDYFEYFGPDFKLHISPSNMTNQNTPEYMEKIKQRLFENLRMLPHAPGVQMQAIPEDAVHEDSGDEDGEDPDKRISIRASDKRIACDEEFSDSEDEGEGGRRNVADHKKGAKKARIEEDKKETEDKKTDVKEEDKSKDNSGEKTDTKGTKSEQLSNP

**Q.** For `Nc1ccccc1NC(=O)c1ccc(C(=O)NCCNc2nonc2/C(=N/O)Nc2ccc(F)c(Br)c2)cc1`, which IC50 (Histone deacetylase 1) is on record?
**A.** Its IC50 is 66.5 nM.

**Q.** And the IC50 [1]?
**A.** Its IC50 is 69 nM.

**Q.** And the IC50 [2]?
**A.** Its IC50 is 17600 nM.

**Q.** And the IC50 (CT26)?
**A.** Its IC50 is 59800 nM.

**Q.** What about the IC50 (A549) of the same compound?
**A.** Its IC50 is 16700 nM.

**Q.** What about the IC50 (HCT-116 [3]) of the same compound?
**A.** Its IC50 is 5120 nM.

**Q.** And the IC50 (HT-29)?
**A.** The IC50 was 11700 nM.

**Q.** And the Activity (HCT-116 [4])?
**A.** Its Activity is “Dose-dependent effect”.

**Q.** And the Activity (HCT-116 [5])?
**A.** The Activity was 18.8%.

**Q.** And the Activity (HCT-116 [6])?
**A.** Its Activity is 29.9%.

**Q.** And the Activity (HCT-116 [7])?
**A.** The Activity was 48.9%.

**Q.** And the Activity (HCT-116 [8])?
**A.** The Activity was 47.4%.

**Q.** And the Activity (HCT-116 [9])?
**A.** Its Activity is “Tde”.

**Q.** And the EC50 [10]?
**A.** Its EC50 is 410 nM.

**Q.** What about the LC50 (HeLa) of the same compound?
**A.** Its LC50 is 24770 nM.

**Q.** And the selectivity ratio [11]?
**A.** Its selectivity ratio is 60.4.

**Q.** And the IC50 (Histone deacetylase 2)?
**A.** Its IC50 is 179 nM.

**Q.** What about the IC50 (Histone deacetylase 3) of the same compound?
**A.** Its IC50 is 45 nM.

**Q.** And the IC50 [12]?
**A.** Its IC50 is 70 nM.

**Q.** What about the half-life at 1 µM [13] of the same compound?
**A.** The half-life at 1 µM was 0.806 h.

**Q.** And the “CL(app)” value [14]?
**A.** Its value is 28.7 µL/min/mg.

**Q.** What about the Cmax [15] of the same compound?
**A.** Its Cmax is 5760 ng/mL.

**Q.** What about the Cmax [16] of the same compound?
**A.** Its Cmax is 12000 ng/mL.

**Q.** And the Tmax [17]?
**A.** Its Tmax is 2 h.

**Q.** What about the Tmax [18] of the same compound?
**A.** Its Tmax is 4.98 min.

**Q.** What about the half-life [19] of the same compound?
**A.** Its half-life is 3.4 h.

**Q.** What about the half-life [20] of the same compound?
**A.** Its half-life is 1.4 h.

**Q.** What about the AUC(0-inf) [21] of the same compound?
**A.** The AUC(0-inf) was 33500 ng·h/mL.

**Q.** And the AUC(0-inf) [22]?
**A.** The AUC(0-inf) was 3650 ng·h/mL.

**Q.** What about the bioavailability [23] of the same compound?
**A.** Its bioavailability is 18%.

**Q.** And the inhibition (Mus musculus [24])?
**A.** The inhibition was “Active”.

**Q.** What about the Stability [25] of the same compound?
**A.** The Stability was “Stable”.

**Q.** And the solubility [26]?
**A.** The solubility was less than 10 µg/mL.

**Q.** And the inhibition in vivo at 100 mg/kg [27]?
**A.** The inhibition in vivo at 100 mg/kg was 56%.

**Q.** What about the Activity (Mus musculus [28]) of the same compound?
**A.** Its Activity is “Non-Toxic”.

**Q.** What about the AUC [29] of the same compound?
**A.** Its AUC is 60 µM·h.

**Q.** And the half-life [30]?
**A.** The half-life was 3.4 h.
